From PubChem BioAssay AID651977 (The Scripps Research Institute Molecular Screening Center, 2013)
Calls of active or inactive are those of the source. How the calls were made is not given here.

target: Steroidogenic factor 1 (Homo sapiens) (UniProt Q13285); assay: SF1 (NR5A1) inverse agonist potency, late-stage follow-up, selectivity assay for LRH-1 inverse agonist project, cell-based, luminescence, dose response (AID 651977); settings: SF1 cell-based luciferase reporter, inverse agonism
Sequence (Q13285 whole entry, looked up): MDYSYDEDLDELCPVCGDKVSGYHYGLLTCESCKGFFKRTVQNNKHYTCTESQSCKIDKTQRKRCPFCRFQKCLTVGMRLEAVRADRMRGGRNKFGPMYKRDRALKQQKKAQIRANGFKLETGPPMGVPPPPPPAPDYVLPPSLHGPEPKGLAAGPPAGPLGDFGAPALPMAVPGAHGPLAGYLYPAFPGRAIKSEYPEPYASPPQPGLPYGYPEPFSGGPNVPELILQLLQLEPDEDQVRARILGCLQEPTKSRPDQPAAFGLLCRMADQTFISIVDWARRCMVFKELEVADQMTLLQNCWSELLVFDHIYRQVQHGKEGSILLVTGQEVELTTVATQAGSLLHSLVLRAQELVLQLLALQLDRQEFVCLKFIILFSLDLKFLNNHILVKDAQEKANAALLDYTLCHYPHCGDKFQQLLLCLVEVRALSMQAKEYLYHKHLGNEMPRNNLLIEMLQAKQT

Structure (SMILES)	IC50
COC(=O)c1ccc(NC(=O)CSc2nc3ncccc3[nH]2)cc1	> 35.9 µM (inactive)
CCc1cc(=O)oc2c(C)c(OCC(=O)NCCN3CCOCC3)ccc12	inactive
COc1ccc(NC(=O)CSc2sc3c(O)cc(=O)[nH]c3c2C#N)c(OC)c1	> 35.9 µM (inactive)
CCOc1ccc(NC(=O)COC(=O)CC2CCCCC2)cc1	> 35.9 µM (inactive)
CCc1cc(=O)[nH]c(SCC(=O)Nc2ccc3c(c2)OCCO3)n1	> 35.9 µM (inactive)
O=C1CCCN2N=C(SCC(=O)Nc3ccc(Br)cc3)SC2=N1	> 35.9 µM (inactive)
O=c1[nH]c(Nc2ccc3c(c2)OCCO3)nnc1Cc1ccccc1	> 12 µM (inactive)
CCOc1ccc(NC(=O)CN2CCN(CC(=O)Nc3ccc(OC)cc3)CC2)cc1	> 35.9 µM (inactive)
COc1ccc(NS(=O)(=O)c2ccc(OCC(=O)N3CCN(C)CC3)cc2)cc1Cl	9.99 µM
CCOc1ccc(NC(=O)COC(=O)c2ccc3c(c2)OCCO3)cc1	> 12 µM (inactive)
COc1ccc(CCNC(=O)CSc2ccc(NC(C)=O)cc2)cc1OC	8.79 µM
CC(=O)c1ccc(NC(=O)C(C)O/N=C(\N)c2ccccc2)cc1 (centres undefined)	inactive
Cc1ccn2c(=O)nc(SCC(=O)Nc3ccc4c(c3)OCCO4)nc2c1	> 35.9 µM (inactive)
Cc1ccc(NC(=O)COC(=O)C(NS(=O)(=O)c2ccc(Cl)cc2)C(C)O)cc1C (centres undefined)	2.28 µM
COc1ccc(NC(=O)CSc2nc(N)c(-c3ccccc3)c(=O)[nH]2)cc1	9.92 µM
CCOc1ccc(NC(=O)CSc2nnc(C(C)C)n2CC)cc1	> 35.9 µM (inactive)
CCc1c(C)nc(SCC(=O)Nc2ccc3c(c2)OCCO3)[nH]c1=O	7.83 µM
Cc1cccc(NC(=O)COC(=O)Cc2cccs2)c1C	> 35.9 µM (inactive)
O=C(NCc1ccco1)c1nn(-c2ccccc2)c(=O)c2ccccc12	> 35.9 µM (inactive)
CCOc1ccc(NC(=O)COC(=O)COc2cccc3c2OC(C)(C)C3)cc1	> 35.9 µM (inactive)
Cc1cccc(NC(=O)COC(=O)CN2C(=O)c3ccccc3C2=O)c1C	> 35.9 µM (inactive)
O=C(COC(=O)CCN1C(=O)C2CC=CCC2C1=O)NCCc1ccc(F)cc1 (centres undefined)	> 35.9 µM (inactive)
COc1ccc(CCNC(=O)COC(=O)c2cc(Cl)nc(Cl)c2)cc1	> 35.9 µM (inactive)

Structure (SMILES)	IC50
COc1ccc(CCNC(=O)COC(=O)c2cccn2C)cc1	> 35.9 µM (inactive)
CC(=O)c1ccc(OC(C)C(=O)OCC(=O)NCCc2ccccc2)cc1 (centres undefined)	> 35.9 µM (inactive)
COc1ccc(NC(=O)CN2C(=O)NC3(CCCC3)C2=O)cc1	> 35.9 µM (inactive)
NC(=O)C1CCN(C(=O)COc2ccc3c4c(c(=O)oc3c2)CCCC4)CC1	> 35.9 µM (inactive)
Cc1cc(C)c2nc(NC(=O)c3ccc([N+](=O)[O-])o3)sc2c1	> 35.9 µM (inactive)
Cc1ccc(-c2csc(NC(=O)c3ccc([N+](=O)[O-])o3)n2)cc1	> 35.9 µM (inactive)
COC(=O)c1ccc(NC(=O)CSc2nn3c(=O)c(C)nnc3s2)cc1	> 35.9 µM (inactive)
CCCc1cc(=O)oc2cc(OCC(=O)NCc3ccccn3)ccc12	> 35.9 µM (inactive)
COc1ccccc1Oc1nnnn1-c1ccc(C(N)=O)cc1	inactive
Cc1ccc2cccc(OCC(=O)NCCC3=CCCCC3)c2n1	2.22 µM
Cc1cc(Br)ccc1NC(=O)CN1C(=O)C2CC=CCC2C1=O (centres undefined)	0.351 µM
O=C(CSc1nnc(CNC(=O)c2c(F)cccc2F)o1)Nc1ccc2c(c1)OCCO2	inactive
Cc1ccc(NC(=O)COC(=O)c2cc(=O)c3ccccc3o2)c(Br)c1	> 35.9 µM (inactive)
COc1ccc(CCNC(=O)CSc2nc3[nH]c(=O)cc(O)c3s2)cc1	> 35.9 µM (inactive)
CCCc1cc(=O)oc2c(C)c(OCC(=O)NCCCn3ccnc3)ccc12	6.68 µM
CC(=O)Nc1ncc(Cc2cc(Cl)ccc2Cl)s1	inactive
COc1ccc(-n2c(N)c(C(=O)NCc3cccnc3)sc2=S)cc1	> 35.9 µM (inactive)
O=C(CSc1nc(=O)n2cc(Cl)ccc2n1)Nc1ccc2c(c1)OCCO2	inactive
Cc1ccc(NC(=O)COC(=O)C(NS(=O)(=O)c2ccc(Cl)cc2)C(C)O)c(Br)c1 (centres undefined)	> 35.9 µM (inactive)
N#CCSc1ccccc1NC(=O)CN1C(=O)C2CC=CCC2C1=O (centres undefined)	> 35.9 µM (inactive)
O=C(Nc1nc2c(Cl)cccc2s1)c1ccc([N+](=O)[O-])o1	> 12 µM (inactive)
O=C(Nc1ccccc1)c1oc2ccccc2c1NC(=O)C1CC1	inactive
COC(=O)c1ccc(CNC(=O)COC(=O)c2cc(Cl)nc(Cl)c2)cc1	inactive

Structure (SMILES)	IC50
CCCc1nnc(SCC(=O)Nc2ccc(C(=O)OCC)cc2)o1	> 35.9 µM (inactive)
O=C(Nc1ccc(Br)cn1)c1ccc([N+](=O)[O-])o1	> 35.9 µM (inactive)
COC(=O)c1ccc(NC(=O)CN2CCN(c3ccc(Cl)cc3)CC2)cc1	> 35.9 µM (inactive)
CCCc1cc(=O)oc2cc(OCC(=O)NCCc3ccc(S(N)(=O)=O)cc3)ccc12	inactive
Cc1sc(NC(=O)C(C)C)c(C(=O)Nc2ccccc2)c1C	9.22 µM
COCCn1c(C)cc(/C=C(\C#N)C(=O)OCC(=O)Nc2ccc(S(N)(=O)=O)cc2)c1C	> 35.9 µM (inactive)
O=C(OCC(=O)N1CCN(C(=O)COC(=O)c2ccc(O)cc2O)CC1)c1ccc(O)cc1O	3.55 µM
O=C(Nc1ccc(S(=O)(=O)N2CCOCC2)cc1)c1cccc([N+](=O)[O-])c1	> 12 µM (inactive)
Cc1cc(=O)oc2c(C)c(OCC(=O)NC3CC(C)(C)NC(C)(C)C3)ccc12	> 35.9 µM (inactive)
CCOc1ccc(OCCC(=O)OCC(=O)Nc2ccc3c(c2)OCCO3)cc1	> 35.9 µM (inactive)
O=C(COc1ccc2c3c(c(=O)oc2c1)CCCC3)NCc1ccccn1	> 35.9 µM (inactive)
COc1ccc(NC(=O)COC(=O)c2cc(S(=O)(=O)N3CCCC3)ccc2O)cc1	> 35.9 µM (inactive)
COc1ccc(C2(C)NC(=O)N(CC(=O)NCCC3=CCCCC3)C2=O)cc1OC (centres undefined)	> 12 µM (inactive)
O=C(COC(=O)c1ccc[n+]([O-])c1)Nc1ccc([N+](=O)[O-])cc1Cl	> 35.9 µM (inactive)
Cc1cc(C)c2sc(NC(=O)c3ccc([N+](=O)[O-])o3)nc2c1	> 35.9 µM (inactive)
COc1ccc(NC(=O)COC(=O)c2c(-c3ccccc3)noc2C)cc1	3.19 µM
CCCc1cc(=O)oc2c(C)c(OCC(=O)NCCN3CCOCC3)ccc12	5.64 µM
COc1ccc(NC(=O)CSc2nnc3ccc(-c4cccnc4)nn23)cc1OC	1.59 µM
COC(=O)c1ccc(NC(=O)CSc2ccc(-c3ccccn3)nn2)cc1	> 35.9 µM (inactive)
COc1ccc(NC(=O)CSc2ccc3c(c2)OCCO3)cc1	> 35.9 µM (inactive)
CC(=O)Nc1ccc(N=c2cc([N+](=O)[O-])cc(Cl)n2O)cc1	> 12 µM (inactive)
Cc1cc(OCC(=O)Nc2nccs2)c2c(C)cc(=O)oc2c1	> 35.9 µM (inactive)
Cc1nn(CC(=O)Nc2ccc3c(c2)OCCO3)c(C)c1[N+](=O)[O-]	> 35.9 µM (inactive)

Structure (SMILES)	IC50
CC1SC(C)C(=O)N(CC(=O)Nc2ccc3c(c2)OCO3)C1=O (centres undefined)	> 35.9 µM (inactive)
COc1ccc(CCNC(=O)COC(=O)Cc2ccccc2[N+](=O)[O-])cc1	> 12 µM (inactive)
COC(=O)c1ccc(NC(=O)COc2cccc(-n3cnnn3)c2)cc1	> 12 µM (inactive)
CCOc1ccc(NC(=O)CSc2nncc(=O)n2N)cc1	> 35.9 µM (inactive)
Cc1ccc(NC(=O)CSc2nc3[nH]c(=O)cc(O)c3s2)c(Br)c1	> 35.9 µM (inactive)
CCCN(CC(=O)Nc1ccc(C(C)=O)cc1)CC(=O)Nc1ccccc1C	inactive
CCCc1cc(=O)oc2cc(C)cc(OCC(=O)NC3CC3)c12	2.67 µM
O=C(NCC1CCCO1)c1ccc(NC(=O)c2cccc([N+](=O)[O-])c2)cc1 (centres undefined)	1.02 µM
CCOc1ccc(NC(=O)CSc2nc3[nH]ncc3c(=O)[nH]2)cc1	> 35.9 µM (inactive)
COCC(=O)NC1CCN(CC(=O)Nc2ccc(OC)cc2[N+](=O)[O-])CC1	> 35.9 µM (inactive)
COc1ccc(CCNC(=O)CSc2nn3c(=O)c(C)nnc3s2)cc1OC	5.7 µM
Cc1ccc(NC(=O)CSc2sc3c(O)cc(=O)[nH]c3c2C#N)c(F)c1	> 35.9 µM (inactive)
O=C(CSc1nnc(CNC(=O)c2ccccc2F)o1)Nc1ccc2c(c1)OCCO2	> 35.9 µM (inactive)
O=C(COC(=O)c1ccc(=O)n(Cc2ccccc2)n1)Nc1ccc2c(c1)OCCO2	> 35.9 µM (inactive)
COC(=O)c1ccc(NC(=O)CSc2nncn2-c2cccnc2)cc1	> 35.9 µM (inactive)
Cc1cc(Br)ccc1NC(=O)CSc1nnc(CN2CCOCC2)n1C	> 35.9 µM (inactive)
CCn1c(SCC(=O)Nc2ccc(Cl)cc2)nnc1C1CC1	> 35.9 µM (inactive)
O=C(COc1ccc2c3c(c(=O)oc2c1)CCC3)NCc1ccncc1	> 35.9 µM (inactive)
COc1ccc(CCNC(=O)COC(=O)C23CC4CC(CC(C4)C2)C3)cc1	4.42 µM
CCOc1ccc(OCCN2C(=O)NC(Cc3c[nH]c4ccccc34)C2=O)cc1 (centres undefined)	inactive
